{"source": "patent US10640524B2", "about": "“Prototype systems of theranostic biomarkers for in vivo molecular management of cancer” (EPOS-IASIS RESEARCH AND DEVELOPMENT, LTD, priority 2015, dated 2020)", "key": {"[1]": {"tested_on": "LoVo cells", "test": "MTT colorimetric assay of antiproliferative efficacy", "assay_type": "cell-based", "settings": "FIG. 4"}, "[2]": {"test": "In vivo biodistribution by quantitative fluorescence imaging", "parameters": "species or system mouse", "procedure": "A study of the in vivo biodistribution of a dicarboxylic ester of γ-Tocotrienol (DCE-γT) (enabled by customized histopathologic processing and quantitative fluorescence imaging) was performed. The study disclosed liver uptake as a function of time defining fluorescent chromanol esters as valued molecular probes. The structure of the dicarboxylic ester of γ-Tocotrienol (DCE-γT) is as follows:\nFluorescent signals of the DCE-γT and its free fluorescent metabolite, corresponding to the fluorescent ligand, peaked at 30 min and 3 hrs respectively, which was in agreement with in vitro findings. Colon uptake as a function of time confirms the mitochondrial predilection of the esterified chromanols and claims a new generation of optically active mitocans."}, "[3]": {"biological_target": "T1, EGFR membrane tyrosine kinase receptor (Homo sapiens, UniProt P00533)", "T1 construct": "expressed in transfected cells", "test": "FRET between EGFR-Luc and fluorescent ester in transfected cells", "assay_type": "cell-based", "settings": "EGFR negative colon cancer cells transfected with EGFR-Luc plasmid; FIG. 5", "procedure": "The fluorescent esters of the natural products disclosed herein can also be used as molecular probes for deciphering the interaction between the natural product and potential biomarkers in cancer cells. EGFR negative colon cancer cells were transiently transfected with a rationally designed EGFR-Luc plasmid and incubated with the DCE-γ-Tocotrienol ester. Bioluminescence of the Luciferase (donor) was assessed against the fluorescence signal of either the DCE-γ-Tocotrienol ester or the hydrolysis product (acceptor)."}, "[4]": {"tested_on": "EGFR-Luc and Grb2-GFP interaction", "test": "BRET of the interaction between EGFR-Luc and Grb2-GFP", "assay_type": "cell-based"}, "[5]": {"tested_on": "SW620 cells", "test": "Label-free temporal quantitative pharmacoproteomics", "assay_type": "cell-based", "settings": "0.04 mM", "procedure": "The following experiment was performed to uncover new biomarkers of therapeutic response to the anticancer efficacy of the natural product based theranostic systems of the present invention.\nIn this experiment, SW620 cells were seeded in T75 flasks in DMEM, 10% FBS and 1% Penicillin/Streptomycin (all from Gibco). The cells were allowed to attach overnight. The following day the medium was removed and fresh medium containing 0.04 mM of either γT (γ-tocotrienol) or DCE-γT (diluted in absolute ethanol; final concentration of ethanol in the medium was 0.1% v/v). For control untreated cells, equal amount of fresh medium (containing ethanol at 0.1% v/v final concentration) was added.\nSW620 cells were harvested after 24, 36 and 48 hrs of incubation with γT or DCE-γT. Briefly, the medium was removed and the cells were rinsed three times with PBS (without Ca, Mg) (Gibco). Fresh PBS was added and the cells were scraped off the flasks and collected in tubes. Collected cells were centrifuged at 1000 rpm (165 g) for 3 min and the supernatant was removed. The cell pellet was re-suspended in PBS and the centrifugation step was repeated. The supernatant was removed and the cells in minimal residual PBS were snap-freezed in liquid nitrogen. Once frozen the cells were stored in −80° C. until the proteomics analysis.\nIn terms of data analysis, a threshold of relative protein abundance equal or greater than 1.5-fold increase or decrease was set."}, "[6]": {"tested_on": "colon cancer cells (SW480)", "test": "Antiproliferative effect of A1F-D1F on colon cancer cells", "assay_type": "cell-based", "settings": "for effect on cell viability with respect to the control (no drug): SW480, FIG. 3; for cell viability with respect to the control: human, 24 h", "procedure": "The antiproliferative effect of the following compounds A1F, B1F, C1F and D1F were tested on colon cancer cells (SW480)."}}, "data": [{"molecule": "CC1(C)C(/C=C/C=C/C=C/C=C2\\N(CCCCS(=O)(=O)[O-])c3ccc4ccccc4c3C2(C)C)=[N+](CCCCS(=O)(=O)[O-])c2ccc3ccccc3c21.[Na+]", "note": "[free cyanine dye, indocyanine green, reference compound]", "values": [{"measurement": "antiproliferative efficacy", "setting": "[1]", "result": "did not exhibit any antiproliferative effects"}]}, {"molecule": "dicarboxylic ester of γ-Tocotrienol [DCE-γT]", "values": [{"measurement": "time of peak fluorescent signal", "setting": "[2]; in vivo biodistribution, liver uptake as a function of time", "result": 30, "unit": "min"}, {"measurement": "blood brain barrier passage", "setting": "[2]; uptake by mouse brain parenchyma cells", "result": "able to pass the blood brain barrier"}, {"measurement": "FRET signal", "setting": "[3]", "result": "amplified FRET signal"}, {"measurement": "activation within the EGFR axis", "setting": "[4]", "result": "neither the ester nor the hydrolysis products elicit any unwanted activation"}, {"measurement": "number of proteins whose expression was elicited", "setting": "[5]; 24 hrs", "result": 37}, {"measurement": "number of proteins whose expression was elicited", "setting": "[5]; 36 hrs", "result": 30}, {"measurement": "number of proteins whose expression was elicited", "setting": "[5]; 48 hrs", "result": 29}, {"measurement": "decrease in DNA repair factors", "setting": "[5]; versus untreated control", "result": 2, "unit": "fold"}, {"measurement": "decrease in protein level of histone H3 types", "setting": "[5]; versus untreated control", "result": "at least 6 fold"}, {"measurement": "decrease in protein level of snRNPs", "setting": "[5]; versus untreated control", "result": 2, "unit": "fold"}, {"measurement": "increase in histone H2A.Z", "setting": "[5]; versus untreated control", "result": 23, "unit": "fold"}, {"measurement": "increase in histone H3 forms", "setting": "[5]; versus untreated control", "result": "≥ 1.8", "unit": "fold"}]}, {"molecule": "CCN1\\C(=C/C=C/C=C/C=C/C2=[N+](CCCCCC(=O)NCC(=O)Nc3cccc(Nc4ncnc5ccc(NC(=O)COC)cc45)c3)c3ccc4ccccc4c3C2(C)C)C(C)(C)c2c1ccc1ccccc21.[Br-]", "note": "[theranostic system]", "values": [{"measurement": "antiproliferative efficacy", "setting": "[1]", "result": "significantly higher antiproliferative efficacy than free anilinoquinazoline"}]}, {"molecule": "C=CC(=O)Nc1cc2c(NCc3cccc4ccccc34)ncnc2cc1NC(=O)CCl", "note": "[C1F]", "values": [{"measurement": "effect on cell viability with respect to the control (no drug)", "setting": "[6]", "result": "reduce the viability of the cells"}, {"measurement": "cell viability with respect to the control", "setting": "[6]", "result": 20, "unit": "%"}]}, {"molecule": "C=CC(=O)Nc1cc2c(Nc3ccc(C(C)C)cc3)ncnc2cc1NC(=O)CCl", "note": "[B1F]", "values": [{"measurement": "effect on cell viability with respect to the control (no drug)", "setting": "[6]", "result": "reduce the viability of the cells"}]}, {"molecule": "C=CC(=O)Nc1cc2c(Nc3ccc(C(C)(C)C)cc3)ncnc2cc1NC(=O)CCl", "note": "[D1F]", "values": [{"measurement": "effect on cell viability with respect to the control (no drug)", "setting": "[6]", "result": "reduce the viability of the cells"}, {"measurement": "cell viability with respect to the control", "setting": "[6]", "result": 20, "unit": "%"}]}, {"molecule": "CC(C)=CCC/C(C)=C/CC/C(C)=C/CC[C@]1(C)CCc2cc(O)c(C)c(C)c2O1", "note": "[γT, γ-tocotrienol, reference compound]", "values": [{"measurement": "decrease in protein level of histone H2B types", "setting": "[5]; versus untreated control", "result": 1.8, "unit": "fold"}, {"measurement": "decrease in protein level of histone H3 types", "setting": "[5]; versus untreated control", "result": "at least 3.7 fold"}, {"measurement": "decrease in protein level of hnRNPs", "setting": "[5]; versus untreated control", "result": "at least 2 fold"}, {"measurement": "decrease in protein level of snRNPs", "setting": "[5]; versus untreated control", "result": 1.8, "unit": "fold"}, {"measurement": "increase in histone H2A.Z", "setting": "[5]; versus untreated control", "result": 24, "unit": "fold"}, {"measurement": "increase in level of RNA helicases", "setting": "[5]; versus untreated control", "result": "≥ 1.9", "unit": "fold"}, {"measurement": "increase in level of certain snRNP components", "setting": "[5]; versus untreated control", "result": "≥ 3", "unit": "fold"}, {"measurement": "increase in level of transcription regulators/co-factors", "setting": "[5]; versus untreated control", "result": "≥ 2", "unit": "fold"}]}, {"molecule": "C=CC(=O)Nc1cc2c(Nc3ccc(Br)cc3)ncnc2cc1NC(=O)CCl", "note": "[A1F]", "values": [{"measurement": "effect on cell viability with respect to the control (no drug)", "setting": "[6]", "result": "reduce the viability of the cells"}, {"measurement": "cell viability with respect to the control", "setting": "[6]", "result": 20, "unit": "%"}]}]}
